Measurements: patent publication US12433869B2, “Preventing and treating malaria” (priority 2019, dated 2025)

Assays:
[1] = system: RBC membrane permeability to water; experiment: Cell scan of whole blood contacted with agents (Example 2), Pk0 measured; assay type: cell-based, human; conditions: for Pk0: whole blood of healthy volunteer in ACD, agent at the concentration listed in Table 1
Method: A sample of whole blood from a healthy volunteer was drawn into ACD anticoagulant. The unwashed sample was divided into aliquots and was analyzed using the Prior Shine Technology and/or the Provided Cell Scanning Technologies. The following outputs were obtained from the sample:
Using the technologies described herein, a cell-by-cell analysis was converted into a plot of percent change of cell volume vs. osmolality (“Cell Scan Plot”) by converting the individual peak voltage into a cell volume, then calculating a mean volume for an aliquot of cells, and plotting the means to generate the Cell Scan Plot. The percentage change of cell volume at each osmolality is calculated and compared to the mean cell volume of an isotonic cell (e.g., FIG. 1b). On such a plot, Pk0 (see 101) is the osmotic pressure at which the net water flow is zero (i.e., when a cell achieved its maximum volume, i.e., when it is a perfect sphere).
A sample of whole blood from a healthy volunteer was drawn into ACD anticoagulant. Blood samples were divided into aliquots, and each sample was contacted with an agent at concentrations consistent with the agent's in vivo concentration. […] Five minutes after exposure to an agent, the blood sample was evaluated for cell membrane permeability and Pk0 was measured.

[2] = system: RBC membrane permeability; experiment: Effect of 5-HT on cell membrane permeability of healthy RBCs (Example 3); assay type: cell-based, human
Method: A sample of whole blood from a healthy volunteer was drawn into ACD anticoagulant. The sample was then treated with 5-HT (900 ng/mL), and cell membrane permeability was evaluated 5 minutes after treatment.

Row | SMILES | Pk0 lowered to ([1]; after 10 minutes) [mOsm/kg] | Pk0 [1] [mOsm/kg] | Pk0 after treatment ([2]; 5-HT 900 ng/mL, 5 minutes after treatment, normal Pk0 approx. 140 before) | Pk0 shift after contacting with 5-HT ([2]; FIG. 5, RBCs of normal healthy individual)
1 | OC[C@H]1O[C@@H](O[C@H]2[C@H](O)[C@@H](O)C(O)O[C@@H]2CO)[C@H](O)[C@@H](O)[C@H]1O (some centres unmarked) [Lactose] | 100 |  |  | 
2 | C[C@@H]1[C@H](O)[C@@H](C)/C=C/C=C/C=C/C=C/C=C/C=C/C=C/[C@H](O[C@@H]2O[C@H](C)[C@@H](O)[C@H](N)[C@@H]2O)C[C@@H]2O[C@](O)(C[C@@H](O)C[C@@H](O)[C@H](O)CC[C@@H](O)C[C@@H](O)CC(=O)O[C@H]1C)C[C@H](O)[C@H]2C(=O)O [Amphotericin B] |  | 85 |  | 
3 | NCCc1c[nH]c2ccc(O)cc12 [Agent 5-HT, 5-hydroxytryptamine] |  | 110 | approx. 110 mOsm/kg | approx. 30 mOsm/kg
